Data as given in patent publication US20260345591A1, “COMBINATIONS OF ESTROGEN RECEPTOR DEGRADERS AND CDK4 INHIBITORS” (PFIZER INC., priority 2023, published 2026).
Entries after “also recorded” stand apart in the source; their conditions may differ. Blank lines part the entries; values can stand above or below the compound they belong to.

Columns and labels:
[1] = system: HR+HER2− BC Xenograft Model MCF7; experiment: Tumor regrowth after end of treatment in MCF7 xenograft model; assay type: in vivo, Mus musculus (NSG mice); conditions: fulvestrant 10 mg/kg alone; Compound A 30 mg/kg QD alone; palbociclib 10 mg/kg BID + Compound A 30 mg/kg QD
Protocol: (§1) To establish the MCF7 P1, when tumor volume of MCF7 PO donor mice reached a range of 700 to 800 mm3, tumors were collected and cut into fragments. The fragments were subsequently transplanted into secondary recipient mice for TGI study expansion. Secondary recipient mice were than randomly assigned to groups (n=10) when tumor volumes reached a range between 143 mm3 and 209 mm3 and subsequently treated with: 1) vehicle (0.5% methylcellulose A4M/water), PO; 2) fulvestrant at 10 mg/kg twice in the first week, then weekly afterwards, SC; 3) Compound A at 30 mg/kg QD, PO; 4) Compound B at 30 mg/kg BID, PO; 5) Compound B at 60 mg/kg BID, PO; 6) Compound B at 30 mg/kg plus fulvestrant; 7) Compound B at 60 mg/kg plus fulvestrant; 8) Compound B at 30 mg/kg plus Compound A; 9) Compound B at 60 mg/kg plus […]; 10) palbociclib at 10 mg/kg BID, PO plus Compound A. All mice received treatment continuously until Day 42. TGI was assessed on Day 41 post first dose.
For the efficacy measurements, tumor volume and body weights were collected twice a week. Tumor volume was calculated using the [(Length×Width×Width)/2)] formula. TGI was calculated as 100*(1−ΔT/ΔC). […]
Tumor growth delay was monitored after treatment was discontinued on Day 43 and statistical analysis was performed on Day 26 post last dose (Day 69 post study start).

[2] = Interconversion to epimer; assay type: physicochemical
[3] = Biopharmaceutics Classification System (solubility/permeability); assay type: physicochemical
MCF7 xenograft model = experiment: Tumor growth inhibition (anti-tumor efficacy) in MCF7 xenograft model, HR+/HER2- breast cancer; assay type: in vivo, Mus musculus (NSG mice); conditions: for TGI / TGI, statistical significance (ANCOVA): Day 41
Protocol: To generate MCF7 PO donors, cells were obtained from ATCC and cultured in RPM11640 supplemented with 10% FBS. All cells were maintained in a humidified incubator at 37 °C with 5% CO2.
To establish the MCF7 PO donor mice, cells (5×10^6/mouse with 50% Cultrex® Basement Membrane Matrix) were subcutaneously (in 0.2 mL total volume) implanted in female NSG mice supplemented with 17β-ESTRADIOL water ad libidum (8.5 μg/mL concentration). The 17β-ESTRADIOL water supplement was administered about 7 days before the implant and all throughout the duration of the study.
as §1
For the efficacy measurements, tumor volume and body weights were collected twice a week. Tumor volume was calculated using the [(Length×Width×Width)/2)] formula. TGI was calculated as 100*(1−ΔT/ΔC). The ΔC (ΔT) was obtained by subtracting the mean tumor burden in the vehicle (treated) group on the first day of treatment (Day 0) from the mean tumor burden in vehicle (treated) group on the assessment day. Statistical analysis was performed using TGI Analyzer ANCOVA. BLISS statistical analysis (statistical modeling of single drug response from drug combination data) was used to measure synergy effect, a combination is synergistic if the tumor volume is less than the BLISS with pvalue of <0.05.
Compound B was tested at two CRD dose levels (30 mg/kg, BID and 60 mg/kg, BID) as a single agent or in combination with Compound A at 30 mg/kg QD or fulvestrant at CRD (10 mg/kg). Palbociclib at CRD (10 mg/kg, BID) in combination with Compound A served as a positive comparator.

estrogen receptor = target: T1, estrogen receptor (Homo sapiens, UniProt P03372); experiment: Degradation of the estrogen receptor; assay type: cell-based; conditions: preclinical data
T1 construct: cereblon-recruiting PROTAC degradation
T1 sequence (P03372 1-595): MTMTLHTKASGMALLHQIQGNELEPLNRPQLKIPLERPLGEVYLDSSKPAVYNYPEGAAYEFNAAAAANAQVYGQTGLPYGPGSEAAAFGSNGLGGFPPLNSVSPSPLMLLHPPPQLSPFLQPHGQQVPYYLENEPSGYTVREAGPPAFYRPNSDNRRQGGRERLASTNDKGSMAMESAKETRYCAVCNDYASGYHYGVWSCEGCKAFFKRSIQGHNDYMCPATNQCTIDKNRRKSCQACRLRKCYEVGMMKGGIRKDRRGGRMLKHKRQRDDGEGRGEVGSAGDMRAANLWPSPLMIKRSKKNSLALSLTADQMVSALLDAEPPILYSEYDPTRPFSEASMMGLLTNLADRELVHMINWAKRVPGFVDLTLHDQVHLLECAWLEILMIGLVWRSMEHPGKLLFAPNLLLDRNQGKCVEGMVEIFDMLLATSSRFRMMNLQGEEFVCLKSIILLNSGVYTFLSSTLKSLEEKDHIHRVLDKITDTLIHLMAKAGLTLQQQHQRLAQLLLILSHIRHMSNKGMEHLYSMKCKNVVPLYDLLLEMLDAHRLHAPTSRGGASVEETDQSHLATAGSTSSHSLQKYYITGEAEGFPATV

[4] = Preclinical exposure of epimer Compound C compared to Compound A; assay type: in vivo; conditions: preclinical data
[5] = fulvestrant 10 mg/kg alone, Compound A 30 mg/kg QD alone, palbociclib 10 mg/kg BID + Compound A 30 mg/kg QD

interconversion to epimer Compound C [2]: can interconvert to its epimer
SMILES: O=C1CC[C@H](N2Cc3cc(N4CCN(CC5CCN(c6ccc([C@@H]7c8ccc(O)cc8CC[C@@H]7c7ccccc7)cc6)CC5)CC4)ccc3C2=O)C(=O)N1 [Compound A, (S)-3-(5-(4-((1-(4-((1R,2S)-6-hydroxy-2-phenyl-1,2,3,4-tetrahydronaphthalen-1-yl)phenyl)piperidin-4-yl)methyl)piperazin-1-yl)-1-oxoisoindolin-2-yl)piperidine-2,6-dione]
Tumor regrowth, ANCOVA Analysis (Day 26 post end of treatment) [1]: β (indicates p < 0.05 versus Compound B single agent)
Biopharmaceutics Classification System class [3]: Class IV compound (low solubility/low permeability)
TGI (MCF7 xenograft model; Compound A 30 mg/kg PO QD × 42 D): 119%
TGI, statistical significance (ANCOVA) (MCF7 xenograft model; Compound A 30 mg/kg QD, alone or with palbociclib 10 mg/kg BID): *α+βγ
antitumor efficacy (MCF7 xenograft model; [5]): significant tumor regression; also recorded: no significant differences in the TGI

SMILES: CC(C)n1c(C(C)(C)O)nc2c(F)cc(-c3nc(N[C@@H]4CCOC[C@H]4O)ncc3Cl)cc21 [Compound B, 1,5-anhydro-3-({5-chloro-4-[4-fluoro-2-(2-hydroxypropan-2-yl)-1-(propan-2-yl)-1H-benzimidazol-6-yl]pyrimidin-2-yl}amino)-2,3-dideoxy-D-threo-pentitol]
TGI (MCF7 xenograft model; Compound B 30 mg/kg PO BID × 42 D): 62%
TGI (MCF7 xenograft model; Compound B 60 mg/kg PO BID × 42 D): 81%
TGI, statistical significance (ANCOVA) (MCF7 xenograft model; Compound B at 30 mg/kg BID, alone or + fulvestrant 10 mg/kg): *α ^
TGI, statistical significance (ANCOVA) (MCF7 xenograft model; Compound B at 60 mg/kg BID, alone, + fulvestrant 10 mg/kg or + Compound A 30 mg/kg QD): *+α
antitumor efficacy (MCF7 xenograft model; Compound B at 30 and 60 mg/kg BID, alone or + Compound A 30 mg/kg QD): significant tumor growth inhibition; also recorded: significant efficacy

degradation of the estrogen receptor (estrogen receptor): does not degrade the estrogen receptor
exposure of Compound C compared to Compound A [4]: < 26%
SMILES: O=C1CC[C@@H](N2Cc3cc(N4CCN(CC5CCN(c6ccc([C@@H]7c8ccc(O)cc8CC[C@@H]7c7ccccc7)cc6)CC5)CC4)ccc3C2=O)C(=O)N1 [Compound C]

SMILES: C[C@]12CC[C@@H]3c4ccc(O)cc4C[C@@H](CCCCCCCCC[S+]([O-])CCCC(F)(F)C(F)(F)F)[C@H]3[C@@H]1CC[C@@H]2O (stereo partly drawn) [Fulvestrant, fulvestrant, reference compound]
TGI (MCF7 xenograft model; fulvestrant 10 mg/kg SC, D 1, D 3, then 1x/week × 5 W): −7%
antitumor efficacy (MCF7 xenograft model; [5]): no tumor growth inhibition
